Data: patent US7001770B1, “Calpain inhibitors and their applications” (priority 1998, dated 2006)
Peptide text beside a SMILES is read from it.

Tests used:
HLF cells = assay: Apoptosis by annexin V-FITC staining, flow cytometry; type: cell-based; details: calpain inhibitor 2 at 10 μM
Description: (§1) P53 was administered to the cells by the use of the replication defective adenoviral vector ACN53 described in Wills, et al., supra. The effect of varying concentrations of rAd-p53 (from […] to 2×10^9 rAd-p53 particles/ml of solution) was investigated in combination with CI-1 in a range of 5–20 μm. The effects of individual and combination treatment was determined in the in DLD1, RKO, HLF and SK-Hep1 cells was investigated in substantial accordance with the teaching of Examples 2 and 3 herein. The percentage of apoptotic cells was determined at 17 hours post treatment (with the exception of U87 cells (24 hours) and HeLa cells (68 hours)) with annexin V positive staining. The results are presented in graphical format in FIG. 3 of the attached drawings. In brief, the results were as follows:
To quantitate the increased efficacy of rAd-p53 induced cell killing in tumor cell lines in response to CI-1 treatment, HLF cells were infected with increasing concentrations of rAd-p53 with or without 10 μM CI-1, and assayed for percentage apoptotic cells by annexin V-FITC staining 42 hours post-treatment in substantial accordance with the teaching of Example 3 herein. […] No increase in annexin V-FITC positive cells was detected at 1×10^5 particles/ml rAd-p53 with or without 10 μM CI-1. At 1×10^6 particles/ml rAd-p53, the percentage apoptotic cells without CI-1 was 14%, while 40% of annexin V positive cells was detected when cell were treated with 10 μM CI-1. At a concentration of 1×10^7 ACN53 particles/ml, 17% annexin V positive without and 63% with 10 μM CI-1 was detected. At 1×10^8 particles/ml, 52% were annexin V positive without and 70% positive with inhibitor treatment. At a dose of 1×10^9 particles of rAd-p53, however, the percentage annexin V positive was about the same for both 77% without and 74% with 10 μM CI-1. […] concentration of rAd-p53 was sufficient to induce approximately 50% cell death, while only a 1×10^7 particle/ml concentration rAd-p53 was needed to induce approximately the same percentage of cell death when 10 μM CI-1 as added.
(§2) The effect of an inhibitor of μ-calpains, CI-1 (N-acetyl-leu-leu-norleucinal), was investigated for its ability to enhance p53 mediated apoptosis in tumor cell lines having p53+ and p53− status listed in Table1. Each cell line was treated with 5–50 μM CI-1 for 17–26 hours. To detect a G0/G1 block, bromodeoxyuridine (BrdU) incorporation followed by flow cytometric analysis was done 17 hours post-treatment as described in Example 4 herein. […] The results of these experiments are presented in FIGS. 1 and 2 of the attached drawings. In FIG. 1, each point on the graph represents percentage annexin V positive after background percentage (DMF alone) was subtracted.
(§3) An aliquot containing approximately 1×10^6 cells of each type was placed in a T-225 flask. The effect of varying concentrations of rAd-p53 (from 1×10^7 to 2×10^9ACN53 particles/ml of solution) was investigated in combination with CI-1 in a range of 5–20 μM. In each instance, the cell line was infected with 1×10^7–1×10^9 particles/ml of cell culture with the ACN53 using the empty cassette virus (ZZCB) as a control. In each instance, the cells were exposed to the virus for a period of one hour. At the end of this time, the virus was washed off the from the cells and fresh media containing an appropriate concentration of CI-1 was added.
HLF cells were infected at increasing log concentrations of rAd-p53 ranging from 1×10^5 to 1×10^9 for one hour at which time virus was washed off and replaced with fresh media (viral infection with no treatment) or with 10 μM calpain inhibitor 1. Cells were assayed for apoptosis by annexin V-FITC staining at 24 and 42 hours post-infection.
CI-1 was obtained from Boehringer-Mannheim Biochemicals (Indianapolis, Ind.). The CI-1 containing media was prepared as follows. CI-1 was diluted in dimethylformamide (DMF) to a concentration of 33.3 μM/μl. […]

SK-Hep1 cells = assay: as above; type: cell-based; details: calpain inhibitor 2 at 20 μM; endogenous wildtype p53
Description: as §1, §2, §3
CI-1 was obtained from Boehringer-Mannheim Biochemicals (Indianapolis, Ind.). The CI-1 containing media was prepared as follows. CI-1 was diluted in dimethylformamide (DMF) to a concentration of 33.3 μM/μl. The CI-1 solution in DMF was added to achieve a final concentration in the media of 5 or 10 μM final concentration of CI-1. An equivalent volume of DMF alone was added to the control cells. Calpain inhibitor 2, N-acetyl-leu—leu-methioninal (Boehringer Mannheim) was added to cell lines at 5–50 μM final concentration with or without rAd-p53 for 26 hours.
At a time of 17 (or 26 hours) post infection, the percentage of cells undergoing apoptosis was determined by convential apoptotic markers. Apoptosis was monitored visually by observing blebbed nuclei characteristic of apoptosis, by propidium iodide staining (using propidium iodide commercially available from Molecular Probes, Inc.) followed by flow cytometric analysis to look for subgenomic populations of cells, and by labeling cells with annexin V-FITC (commercially available from Boehringer Mannheim) in substantial accordance with the instructions provided by the manufacturer, followed by flow cytometric analysis on a FACScan Flow Cytometer (commercially available from Becton Dickinson).

CSCC[C@@H](C=O)NC(=O)[C@H](CC(C)C)NC(=O)[C@H](CC(C)C)NC(C)=O [CI-2, N-acetyl-leu—leu-methioninal] (Ac-Leu-Leu-Met-aldehyde) was tested, and the “effect on the induction of apoptosis in combination with rAd-p53” value (HLF cells) was “no significant effect” and the “increase in annexin V-FITC positive cells” value (SK-Hep1 cells) was “no significant increase”.
